Values quoted from earlier work as cited in US20220215898A1, “METHODS AND […] FOR GENERATING A VIRTUAL MODEL OF XENOBIOTIC EXPOSURE USING TRANS[…] OF LIQUID BIOPSY SAMPLES” (Certara USA, Inc., priority 2019, published 2022).

Conditions: compound files selected from the Simcyp library

SMILES: Cc1ncc2n1-c1ccc(Cl)cc1C(c1ccccc1F)=NC2 [midazolam]
- clearance category of CYP3A substrate: medium clearance

SMILES: Cc1nnc2n1-c1ccc(Cl)cc1C(c1ccccc1)=NC2 [alprazolam]
- clearance category of CYP3A substrate: low clearance
